Source: patent publication US10556866B2, “ROR gamma (RORγ) modulators” (LEAD PHARMA HOLDING B.V., priority 2015, dated 2020)

Assays:
[1] = target: T1, RORγ (Homo sapiens, UniProt P51449); assay: RORγ GAL4 reporter gene assay (luciferase readout); type: cell-based; details: inhibition of RORγ (GAL4-RORγ-LBD) in 293FT cells, luciferase signal; read-out: mean pIC50 (converted)
T1 construct: expressed in transfected cells; host or cells: 293FT cells (Invitrogen), expression vector pFN26A (Promega)
T1 sequence (P51449 269-508 limits assumed): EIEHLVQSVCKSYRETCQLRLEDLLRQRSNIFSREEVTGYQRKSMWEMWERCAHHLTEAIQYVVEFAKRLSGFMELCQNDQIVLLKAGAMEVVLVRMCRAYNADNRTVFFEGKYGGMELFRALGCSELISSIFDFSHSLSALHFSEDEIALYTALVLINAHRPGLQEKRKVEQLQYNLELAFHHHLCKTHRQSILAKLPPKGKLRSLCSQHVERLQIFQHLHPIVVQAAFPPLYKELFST
Method: Example inhibitors 1-38 were tested for their ability to inhibit RORγ activity in a RORγ GAL4 reporter gene assay. The assay procedure and results are described below.
A GAL4 one-hybrid reporter system employing luciferase readout was established to determine inhibition of RORγ in 293FT cells. The RORγ ligand-binding domain (LBD) was fused to the yeast GAL4 DNA binding domain (DBD) and placed under the control of the human cytomegalovirus (CMV) immediate early promoter, using expression vector pFN26A (Promega) and standard recombinant DNA cloning methods. To serve as a control in the assay, a similar vector was generated in which the GAL4-DBD was fused to Herpes simplex virus protein 16 (VP16), a constitutive transcriptional activator.
To monitor the inhibitory effect of compounds on RORγ, a transcriptional reporter construct was used. The pGL4.35 vector (Promega) contains nine copies of the GAL4 Upstream Activator Sequence (UAS). This sequence drives the transcription of the luciferase reporter gene luc2P in response to binding of a fusion protein containing the GAL4 DNA binding domain, as for example expressed by the GAL4-RORγ-LBD and GAL4-VP16 expression vectors described above. To allow a GAL4 fusion protein to drive the expression of the luciferase reporter, the pGL4.35 expression vector and the appropriate GAL4 fusion protein expression vector were bulk transfected in the 293FT cells using standard transfection techniques.
The day after transfection, cells were plated into 96 well plates, test compound was added and the plates were incubated overnight. Subsequently, the firefly luciferase activity was quantified using luciferase detection reagent and luminescence readout.
293FT cells (Invitrogen) were transfected with a GAL4 fusion protein expression vector (as described above) and the transcriptional reporter construct (pGL4.35, Promega). 60 μL of TransIT-293 transfection reagent (Mirus Bio) was added drop wise to 1500 μl Opti-MEM I Reduced Serum Medium (Invitrogen) and incubated at RT (RT) for 5 to 20 minutes. 1500 μL of this reagent mixture was added to 5 μg of GAL4 fusion protein expression vector and 5 μg of the transcriptional reporter construct, and incubated at RT for 20 minutes.
To harvest 293FT cells from a T75 flask, first the culture medium was taken off the cells. Subsequently, the cells were washed with Phosphate Buffered Saline (PBS) (Lonza), after which the PBS was removed. To dissociate the cells, 1 ml of TrypLE Express (Invitrogen) was added to the flask, followed by incubation at RT until the cells visually started to detach. Cells were collected in 5 mL of assay medium (DMEM culture medium (Lonza), 10% dialyzed FBS (Invitrogen) and Pen/Strep (Lonza)) to achieve a single cell suspension. 10×10^6 cells were spun down and re-suspended in 10 mL of assay medium. Subsequently, the cell suspension was added to the transfection mix tube, and then transferred as a whole to a T75 flask (Greiner), followed by overnight (16-24 hours) incubation at 37° C. and 5% CO2.
For compound screening, the cells were harvested (as described above) and counted. 13×10^6 cells were spun down, the supernatant was aspirated and the cells were re-suspended in 17.3 mL of assay medium obtaining a cell suspension of 0.75×10^6 cells/mL. 80 μL of cell suspension (60,000 cells) was plated per well into a white, flat bottom, tissue culture treated, 96 well screening plates (Greiner).
Test compounds were diluted, starting from a 10 mM dimethylsulfoxide (DMSO) stock solution, to serial dilutions in DMSO at 500× the final test concentration. Subsequently, these solutions were diluted to 5× the final test concentration in two 10-fold-dilution steps in assay medium. The final DMSO concentration of the 5× test compound solution was 1%. 20 μL of the 5× test compound solution was added to each test well of the 96 well plate previously plated with 80 μl cell suspension, resulting in the final test concentration with 0.2% DMSO. […]

[2] = tested on: IL-17A production in anti-CD3/anti-CD28 stimulated peripheral blood mononuclear cells (PBMCs); assay: Peripheral blood mononuclear cell (PBMC) IL-17 assay; type: cell-based; details: 120 h, inhibition of IL-17A production, human PBMCs, 5 days, IL-17 ELISA, read-out: mean pIC50 (converted)
Method: Example inhibitor 5 was tested for its ability to inhibit the IL-17A production in anti-CD3/anti-CD28 stimulated peripheral blood mononuclear cells (PBMCs) isolated from human blood. The assay procedure and results are described below.
This assay is designed to measure the levels of IL-17A secreted from anti-CD3/anti-CD28 stimulated PBMCs with the aim of measuring RORγ mediated inhibition of IL-17A production.
The assay medium consists of 90% RPMI 1640 (Lonza), 10% heat inactivated fetal bovin serum (FBS, Lonza) and 100 U/mL penicillin/streptomycin solution.
Anti-CD3 antibody (BD Pharmingen) was diluted to 10 μg/ml in PBS (Lonza). 30 μL of 10 μg/ml anti-CD3 solution was added to the inner 60 wells, excluding any negative control wells, of a 96-well cell culture treated U-bottom plate (Greiner). Plates were incubated overnight (16-24 hours) at 37° C. and 5% CO2. […]
After incubation the plates were spun down at 1500 rpm for 4 minutes and the supernatant was collected. Subsequently, the IL-17A levels in the supernatants was determined using an IL-17 ELISA kit (human IL-17 DuoSet, R&D systems) according to manufacturer's protocol.
The half maximum inhibitory concentration (IC50) values for the test compounds were calculated from the IL-17A signal using GraphPad Prism software (GraphPad Software).

SMILES | IC50 [1] [nM] | IC50 [2] [nM]
O=C(NCc1ccc(S(=O)(=O)NC2CC2)cc1)c1ccc(C(O)(C(F)(F)F)C(F)(F)F)cc1 [Example 21, N-[[4-(cyclopropylsulfamoyl)phenyl]methyl]-4-[2,2,2-trifluoro-1-hydroxy-1-(trifluoromethyl)ethyl]benzamide] | ≤ 1000 | 
O=C(NCc1ccc(S(=O)(=O)CC2CC2)cc1)c1ccc(C(O)(C2CC2)C(F)(F)F)cc1 (stereo not shown) [Example 11, N-[[4-(cyclopropylmethylsulfonyl)phenyl]methyl]-4-(1-cyclopropyl-2,2,2-trifluoro-1-hydroxy-ethyl)benzamide] | ≤ 100 | 
CCOC(c1ccc(C(=O)NCc2ccc(S(=O)(=O)CC3CC3)cc2C)cc1)(C(F)(F)F)C(F)(F)F [Example 29, N-[[4-(cyclopropylmethylsulfonyl)-2-methyl-phenyl]methyl]-4-[1-ethoxy-2,2,2-trifluoro-1-(trifluoromethyl)ethyl]benzamide] | ≤ 100 | 
CCC(O)(c1ccc(C(=O)NCc2ccc(S(=O)(=O)CC3CC3)cc2)cc1)C(F)(F)F (racemic) [(−)-1, (−)-N-[[4-(cyclopropylmethylsulfonyl)phenyl]methyl]-4-[1-hydroxy-1-(trifluoromethyl)propyl]benzamide] | ≤ 1000 | 
O=C(NCc1ccc(S(=O)(=O)CC2CC2)cc1)c1ccc(C(O)(C(F)F)C(F)(F)F)cc1 (stereo not shown) [Example 5, N-[[4-(cyclopropylmethylsulfonyl)phenyl]methyl]-4-[1-(difluoromethyl)-2,2,2-trifluoro-1-hydroxy-ethyl]benzamide] | ≤ 1000 | 100
Cc1cc(C(=O)NCc2ccc(S(=O)(=O)CC3CC3)cc2)ccc1C(O)(C(F)(F)F)C(F)(F)F [Example 15, N-[[4-(cyclopropylmethylsulfonyl)phenyl]methyl]-3-methyl-4-[2,2,2-trifluoro-1-hydroxy-1-(trifluoromethyl)ethyl]benzamide] | ≤ 100 | 
CC(C)C(O)(c1ccc(C(=O)NCc2ccc(S(=O)(=O)CC3CC3)cc2)cc1)C(F)(F)F (stereo not shown) [Example 10, N-[[4-(cyclopropylmethylsulfonyl)phenyl]methyl]-4-[1-hydroxy-2-methyl-1-(trifluoromethyl)propyl]benzamide] | ≤ 100 | 
COC(c1ccc(C(=O)NCc2ccc(S(=O)(=O)CC3CC3)cc2)cc1)(C(F)(F)F)C(F)(F)F [Example 22, N-[[4-(cyclopropylmethylsulfonyl)phenyl]methyl]-4-[2,2,2-trifluoro-1-methoxy-1-(trifluoromethyl)ethyl]benzamide] | ≤ 100 | 
CCCCOC(c1ccc(C(=O)NCc2ccc(S(=O)(=O)CC3CC3)cc2)cc1)(C(F)(F)F)C(F)(F)F [Example 25, 4-[1-butoxy-2,2,2-trifluoro-1-(trifluoromethyl)ethyl]-N-[[4-(cyclopropylmethylsulfonyl)phenyl]methyl]benzamide] | ≤ 100 | 
CCOC(c1ccc(C(=O)NCc2ccc(S(=O)(=O)NC3CC3)cc2)cc1)(C(F)(F)F)C(F)(F)F [Example 31, N-[[4-(cyclopropylsulfamoyl)phenyl]methyl]-4-[1-ethoxy-2,2,2-trifluoro-1-(trifluoromethyl)ethyl]benzamide] | ≤ 1000 | 
CCS(=O)(=O)c1ccc(CNC(=O)c2ccc(C(O)(CC(C)(C)C)C(F)(F)F)cc2)cc1 (stereo not shown) [Example 18, N-[(4-ethylsulfonylphenyl)methyl]-4-[1-hydroxy-3,3-dimethyl-1-(trifluoromethyl)butyl]benzamide] | ≤ 1000 | 
CCC(O)(c1ccc(C(=O)NCc2ccc(S(=O)(=O)CC3CC3)cc2)cc1)C(F)(F)F (racemic) [Example 1, N-[[4-(cyclopropylmethylsulfonyl)phenyl]methyl]-4-[1-hydroxy-1-(trifluoromethyl)propyl]benzamide] | ≤ 100 | 
O=C(NCc1ccc(S(=O)(=O)CC2CC2)cc1)c1ccc(C(O)(c2ccccc2)C(F)(F)F)cc1 (stereo not shown) [Example 13, N-[[4-(cyclopropylmethylsulfonyl)phenyl]methyl]-4-(2,2,2-trifluoro-1-hydroxy-1-phenyl-ethyl)benzamide] | ≤ 1000 | 
CCCOC(c1ccc(C(=O)NCc2ccc(S(=O)(=O)CC3CC3)cc2)cc1)(C(F)(F)F)C(F)(F)F [Example 24, N-[[4-(cyclopropylmethylsulfonyl)phenyl]methyl]-4-[2,2,2-trifluoro-1-propoxy-1-(trifluoromethyl)ethyl]benzamide] | ≤ 100 | 
COC(CC(C)(C)C)(c1ccc(C(=O)NCc2ccc(S(=O)(=O)CC3CC3)cc2)cc1)C(F)(F)F (stereo not shown) [Example 33, N-[[4-(cyclopropylmethylsulfonyl)phenyl]methyl]-4-[1-methoxy-3,3-dimethyl-1-(trifluoromethyl)butyl]benzamide] | ≤ 100 | 
